Results reported in ChEMBL document CHEMBL5715937, “In vitro activity of Bcr-Abl inhibitors AMN107 and BMS-354825 against clinically relevant imatinib-resistant Abl kinase domain mutants” (Cancer Res, 2005).

Key:
[1] = tested on: BaF3; test: Induction of apoptosis in mouse BaF3 cells expressing Bcr-Abl M244V mutant assessed as increase in apoptotic cells at 1500 nM incubated for 72 hrs by Annexin V-phycoerythrin and 7-amino-actinomycin D staining based PCA instrument analysis relative to control; type: functional
[2] = tested on: BaF3; test: Induction of apoptosis in mouse BaF3 cells expressing Bcr-Abl V379l mutant assessed as increase in apoptotic cells at 1500 nM incubated for 72 hrs by Annexin V-phycoerythrin and 7-amino-actinomycin D staining based PCA instrument analysis relative to control; type: functional
[3] = tested on: BaF3; test: Induction of apoptosis in mouse BaF3 cells expressing Bcr-Abl H396P mutant assessed as increase in apoptotic cells at 1500 nM incubated for 72 hrs by Annexin V-phycoerythrin and 7-amino-actinomycin D staining based PCA instrument analysis relative to control; type: functional
[4] = Inhibition of BCR-ABL H396R mutant (unknown origin) expressed in mouse BaF3 cells assessed as inhibition of cell growth incubated for 72 hrs by […] CellTiter96 viability analysis

## Cc1cn(-c2cc(NC(=O)c3ccc(C)c(Nc4nccc(-c5cccnc5)n4)c3)cc(C(F)(F)F)c2)cn1 [NILOTINIB]
[1]
  Activity: >90%
[2]
  Activity: >90%
[3]
  Activity: >90%
[4]; BaF3, 72 h
  IC50: 41 nM
[4]; BaF3, time 72 hrs, condition chronic myelogenous leukemia
  IC90: 73 nM
